Where two headings read alike, the source gives them in different places.

Experimental findings from patent publication US10245275B2 (ViiV HEALTHCARE UK (NO.4) LIMITED, priority 2014, dated 2019) are described below.

Data set [1] has as its system WT (wild-type HIV virus; recombinant NL4-3 virus). The data set can be described thus: microbe, parasite or virus in culture. Type of data set: cell-based, HIV-1. Put shortly: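 MT-2 cells infected 4-5 days with NL4-3 carrying Renilla luciferase in place of part of nef (Gag P373S), virus made by 293T transfection, with serial inhibitor dilutions. Antiviral activity read as luciferase activity by a modified dual-luciferase read-out.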

Data set [2] is described as follows: Rat PO pharmacokinetic study. Type of data set: in vivo. Conditions: male, Sprague-Dawley, plasma, oral dose of 5 mg/kg, PEG-400/ethanol (90/10) solution, fasted rats. How it is done: Rat Pharmacokinetic Studies:
For the PO pharmacokinetic studies of the compounds in rats, the compounds were each dissolved in PEG-400/ethanol (90/10) as a solution.
Rat. Male Sprague-Dawley rats (300-350 g, Hilltop Lab Animals, Inc., Scottsdale, Pa.) with cannulas implanted in the jugular vein were used. The rats were fasted overnight in the PO pharmacokinetic studies. Blood samples of 0.3 mL were collected from the jugular vein in EDTA-containing microtainer tubes (Becton Dickinson, Franklin Lakes, N.J.), and centrifuged to separate plasma.
In the PO study of the tested compounds, the rats (n=3) received an oral dose of 5 mg/kg of the indicated compound. Serial blood samples were collected before dosing and 15, 30, 45, 60, 120, 240, 360, 480, and 1440 min after dosing.
Quantitation of Compounds in Plasma. Aliquots of plasma samples from rat, studies were prepared for analysis by precipitating plasma proteins with two volumes of acetonitrile containing an internal standard of a similar compound. The resulting supernates were separated from the precipitated proteins by centrifugation for 10 minutes and transferred to autosampler vials. Samples were either prepared manually, or with the use of the Tomtec automated liquid handler. An aliquot of 5 μL was injected for analysis.
The HPLC system consisted of two Shimadzu LC10AD pumps (Columbia, Md.), a Shimadzu SIL-HTC autosampler (Columbia, Md.), and a Hewlett Packard Series 1100 column compartment (Palo Alto, Calif.). The column was a YMC Pro C18 (2.0×50 mm, 3 μm particles, Waters Co., Milford, Mass.), maintained at 60° C. and a flow rate of 0.3 ml/min. The mobile phase consisted of 10 mM ammonium formate and 0.1% formic acid in water (A) and 100% 10 mM ammonium formate and 0.1% formic acid in methanol (B). The initial mobile phase composition was 95% A. After sample injection, the mobile phase was changed to 15% A/85% B over 2 minutes and held at that composition for an additional 1 minute. The mobile phase was then returned to initial conditions and the column re-equilibrated for 1 minute. Total analysis time was 4 minutes.
The HPLC was interfaced to a Micromass Quattro LC. Ultra high purity nitrogen was used as the nebulizing and desolvation gas at flow rates of 100 L/hr for nebulization and 1100 L/hr for desolvation. The desolvation temperature was 300° C. and the source temperature was 150° C. Data acquisition utilized selected reaction monitoring (SRM). Ions representing the (M+H)^+ species for the compound and the internal standard were selected in MS1 and collisionally dissociated with argon at a pressure of 2×10^−3 torr to form specific product ions which were subsequently monitored by MS2.

Data set [3] relates to HIV-1 92UG029 (clade A virus). Briefly: HIV cell culture assay, 92UG029 Gag/Pr recombinant virus in MT-2 cells. Type of data set: cell-based. How it is done:
MT-2 cells and 293T cells were obtained from the NIH AIDS Research and Reference Reagent Program. MT-2 cells were propagated in RPMI 1640 media supplemented with 10% heat-inactivated fetal bovine serum, […]. The 293T cells were propagated in DMEM media supplemented with 10% heat-inactivated fetal bovine serum (FBS), 100 units/mL penicillin G and 100 μg/mL streptomycin. The proviral DNA clone of NL4-3 was obtained from the NIH AIDS Research and Reference Reagent Program. A recombinant NL4-3 virus, in which a section of the nef gene from NL4-3 was replaced with the Renilla luciferase gene, was used as a reference virus. In addition, residue Gag P373 was converted to P373S. Briefly, the recombinant virus was prepared by transfection of the altered proviral clone of NL4-3. Transfections were performed in 293T cells using LipofectAMINE PLUS from Invitrogen (Carlsbad, Calif.), according to manufacturer's instruction. The virus was titered in MT-2 cells using luciferase enzyme activity as a marker. Luciferase was quantitated using the Dual Luciferase kit from Promega (Madison, Wis.), with modifications to the manufacturer's protocol. The diluted Passive Lysis solution was pre-mixed with the re-suspended Luciferase Assay Reagent and the re-suspended Stop & Glo Substrate (2:1:1 ratio). Fifty (50) μL of the mixture was added to each aspirated well on assay plates and luciferase activity was measured immediately on a Wallac TriLux (Perkin-Elmer). Antiviral activities of inhibitors toward the recombinant virus were quantified by measuring luciferase activity in cells infected for 4-5 days with NLRluc recombinants in the presence serial dilutions of the inhibitor.
Determination of EC50 for WT, EC50 for A364V, and EC50 for 92UG029 viruses:
HIV-1 92UG029 was obtained from the NIH (Catalog Number: 1650). This is a subtype A Gag and subtype A Env, X4 (SI) virus from Uganda. Reference: WHO Network for HIV Isolation and Characterization. AIDS Res Hum Retroviruses 10:1359, 1994. The Gag/Pr region from 92UG029 was used to replace that in an HIV-1 NL4-3 virus expressing Renilla luciferase gene.
Both recombinant viruses were used as described above in the HIV cell culture assay for the NL4-3 virus.

The subject of data set [4] is HIV-1 NL4-3 gag A364V virus. The data set can be described thus: microbe, parasite or virus in culture. Type of data set: cell-based. The method in brief: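 Recombinant NL4-3 reporter virus with Renilla luciferase replacing part of nef, made by transfection of 293T cells. MT-2 cells infected for 4-5 days with serial inhibitor dilutions; antiviral activity quantified by luciferase activity.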

The mark [5] stands for this setting: Human immunodeficiency virus 1, NL43, MT2, read-out: EC50 WT (μM), Table 2, 3× higher viral input.
Where [6] appears, read: Human immunodeficiency virus 1, NL43, MT2, read-out: WT (EC50, uM), Table 1 regular screen, MT-2 cells, luciferase readout.
Setting [7] is: Human immunodeficiency virus 1, MT2, read-out: 92UG029A Clade T332S/V362I/V370A (EC50, uM).
Where [8] appears, read: Human immunodeficiency virus 1, MT2, read-out: EC50 92UG029 (μM).
Where [9] appears, read: Human immunodeficiency virus 1, NL43, MT2, read-out: A364V (EC50, uM), Table 1 regular screen, MT-2 cells, luciferase readout.
Setting [10] is: Human immunodeficiency virus 1, NL43, MT2, read-out: EC50 A364V (μM), Table 2, 3× higher viral input.

For `C=C(C)[C@@H]1CC[C@]2(NCCN3CCS(=O)(=O)CC3)CC[C@]3(C)[C@H](CC[C@@H]4[C@@]5(C)CC=C(C6=CCC(CF)(C(=O)O)CC6)C(C)(C)[C@@H]5CC[C@]43C)[C@@H]12` (mixture of isomers) [Example 2, 4-((1R,3aS,5aR,5bR,7aR,11aS,11bR,13aR,13bR)-3a-((2-(1,1-dioxidothiomorpholino)ethyl)amino)-5a,5b,8,8,11a-pentamethyl-1-(prop-1-en-2-yl)-2,3,3a,4,5,5a,5b,6,7,7a,8,11,11a,11b,12,13,13a,13b-octadecahydro-1H-cyclopenta[a]chrysen-9-yl)-1-(fluoromethyl)cyclohex-3-enecarboxylic acid], the EC50 stood at 0.002 µM in data set [1] (setting [5]); 0.00129 µM in data set [1] (setting [6]); 0.00461 µM in data set [3] (setting [7]); 0.005 µM in data set [3] (setting [8]); 0.0847 µM in data set [4] (setting [9]); 0.21 µM in data set [4] (setting [10]). The molecule further came in with an AUC in data set [2] of 7.93 µM·h.
Take `C=C(C)[C@@H]1CC[C@]2(NCCN3CCS(=O)(=O)CC3)CC[C@]3(C)[C@H](CC[C@@H]4[C@@]5(C)CC=C(C6=CCC(C)(C(=O)O)CC6)C(C)(C)[C@@H]5CC[C@]43C)[C@@H]12` (stereo partly shown) [Compound B, reference compound]: the EC50 in data set [1] (setting [5]) came to 0.002 µM; in data set [3] (setting [8]), 0.03 µM; in data set [4] (setting [10]), 1.3 µM. For the same molecule, the “potency vs. WT (in words)” value in data set [1] (comparative data) is given as “comparable potency”. The same molecule came in with an AUC in data set [2] of 6.46 µM·h. The “fold less potent than Compound 2 vs 92UG029” value in data set [3] (relative to Compound 2) stood at 6 fold. For the same molecule, in data set [4] (relative to Compound 2), the “fold less potent than Compound 2 vs A364V” value is 6 fold.
Consider `C=C(C)[C@@H]1CC[C@]2(NCC[C@]3(O)CC[C@@H](S(C)(=O)=O)CC3)CC[C@]3(C)[C@H](CC[C@@H]4[C@@]5(C)CC=C(C6=CC[C@@](CF)(C(=O)O)CC6)C(C)(C)[C@@H]5CC[C@]43C)[C@@H]12` [Example 2-20, (R)-1-(fluoromethyl)-4-((1R,3aS,5aR,5bR,7aR,11aS,11bR,13aR,13bR)-3a-((2-((cis)-1-hydroxy-4-(methylsulfonyl)cyclohexyl)ethyl)amino)-5a,5b,8,8,11a-pentamethyl-1-(prop-1-en-2-yl)-2,3,3a,4,5,5a,5b,6,7,7a,8,11,11a,11 b,12,13,13a,13b-octadecahydro-1H-cyclopenta[a]chrysen-9-yl)cyclohex-3-enecarboxylic acid], for which the EC50 in data set [1] (Human immunodeficiency virus 1, NL43, MT2, read-out: WT (EC50, uM), Table 1 regular screen, class symbol) is below 0.05 µM; in data set [3] (setting [7]) it was below 0.05 µM; in data set [4] (Human immunodeficiency virus 1, NL43, MT2, read-out: A364V (EC50, uM), Table 1 regular screen, class symbol), above 0.05 µM.
In the case of `C=C(C)[C@@H]1CC[C@]2(NCCN3CCS(=O)(=O)CC3)CC[C@]3(C)[C@H](CC[C@@H]4[C@@]5(C)CC=C(C6=CC[C@](CF)(C(=O)O)CC6)C(C)(C)[C@@H]5CC[C@]43C)[C@@H]12` [Example 2a, (S)-4-((1R,3aS,5aR,5bR,7aR,11aS,11bR,13aR,13bR)-3a-((2-(1,1-dioxidothiomorpholino)ethyl)amino)-5a,5b, 8,8,11a-pentamethyl-1-(prop-1-en-2-yl)-2,3,3a,4,5,5a,5b,6,7,7a,8,11,11a,11b,12,13,13a,13b-octadecahydro-1H-cyclopenta[a]chrysen-9-yl)-1-(fluoromethyl)cyclohex-3-enecarboxylic acid], the EC50 in data set [1] (setting [5]) was 0.002 µM; in data set [1] (setting [6]), 0.00198 µM; in data set [3] (setting [7]) it was 0.00706 µM; in data set [3] (setting [8]) it was 0.02 µM; in data set [4] (setting [9]), 0.16 µM; in data set [4] (setting [10]), 0.78 µM. In data set [2], this molecule yielded an area under the curve (AUC) of 7.03 µM·h.
`C=C(C)[C@@H]1CC[C@]2(NCCN3CCS(=O)(=O)CC3)CC[C@]3(C)[C@H](CC[C@@H]4[C@@]5(C)CC=C(C6=CC[C@@](CF)(C(=O)O)CC6)C(C)(C)[C@@H]5CC[C@]43C)[C@@H]12` [Example 2b, (R)-4-((1R,3aS,5aR,5bR,7aR,11aS,11bR,13aR,13bR)-3a-((2-(1,1-dioxidothiomorpholino)ethyl)amino)-5a,5b,8,8,11a-pentamethyl-1-(prop-1-en-2-yl)-2,3,3a,4,5,5a,5b,6,7,7a,8,11,11a,11b,12,13,13a,13b-octadecahydro-1H-cyclopenta[a]chrysen-9-yl)-1-(fluoromethyl)cyclohex-3-enecarboxylic acid]: the EC50 is 0.003 µM in data set [1] (setting [5]); 0.00148 µM in data set [1] (setting [6]); 0.00618 µM in data set [3] (setting [7]); 0.001 µM in data set [3] (setting [8]); 0.201 µM in data set [4] (setting [9]); 0.17 µM in data set [4] (setting [10]). The molecule also gave an AUC in data set [2] of 7.39 µM·h.

As a reminder, the AUC is the area under the concentration-time curve, a measure of exposure. Read a high AUC as more exposure.
